# From US20240343733A1, “COMPOUNDS FOR TARGETING DEGRADATION OF IRAK4 PROTEINS” (BIOGEN MA INC., priority 2021, published 2024)
# Molecular target: T1, IRAK4 (Homo sapiens, UniProt Q9NWZ3)
# T1 construct: 293Tcells expressing HiBiT-tagged IRAK4 were then added into 384-well plates
# T1 sequence (Q9NWZ3 1-460): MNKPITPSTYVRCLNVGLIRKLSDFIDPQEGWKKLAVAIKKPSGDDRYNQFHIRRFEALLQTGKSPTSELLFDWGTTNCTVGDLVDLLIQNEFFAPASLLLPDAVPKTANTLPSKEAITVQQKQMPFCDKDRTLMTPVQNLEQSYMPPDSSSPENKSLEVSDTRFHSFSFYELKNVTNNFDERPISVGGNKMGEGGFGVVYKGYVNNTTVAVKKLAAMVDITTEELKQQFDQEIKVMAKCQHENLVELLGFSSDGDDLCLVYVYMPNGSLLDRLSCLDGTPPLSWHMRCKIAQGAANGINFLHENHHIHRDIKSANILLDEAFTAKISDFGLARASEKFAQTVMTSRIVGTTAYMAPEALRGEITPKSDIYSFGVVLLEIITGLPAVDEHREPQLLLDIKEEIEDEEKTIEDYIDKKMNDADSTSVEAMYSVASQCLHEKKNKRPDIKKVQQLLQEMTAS
# Assay: IRAK4 Degradation Assay, HiBiT Method
# Assay type: cell-based
# Conditions: 293T cells expressing HiBiT-tagged IRAK4, 6 hours
# Procedure: Assay 1. IRAK4 Degradation Assay, HiBiT Method
# Selected compounds were tested in an IRAK4 degradation assay using the HiBiT Method.
# Phenol red-free Dulbecco's modified Eagle medium (DMEM) and fetal bovine serum (FBS) were purchased from Gibco (Grand Island, NY, USA). The Nano-Glo® HiBiT Lytic Assay System was purchased from Promega (Madison, WI, USA). Cell culture flasks and 384-well microplates were acquired from VWR (Radnor, PA, USA). The 293Tcell line was engineered by knocking-in a HiBiT fusion tag into the C-terminal of the IRAK4 gene in 293T cells (Synthego, Redwood City, CA, USA).
# IRAK4 degradation was measured via the quantification of luminescent signals using the Nano-Glo® HiBiT Lytic Assay kit. Test compounds were added to 384-well plates in duplicate using an 11-point half-log dilution series, with the highest dose set at […]. 293Tcells expressing HiBiT-tagged IRAK4 were then added into 384-well plates at a cell density of 10,000 cells per well. The plates were kept at 37° C. with 5% CO2 for 6 hours. Cells that were treated only with DMSO served as the negative control; wells that contained only assay media served as the background control. After the 6-hour incubation, Nano-Glo® HiBiT Lytic Assay reagents were added to the cells. Luminescence was acquired using an EnVision™ Multilabel Reader (PerkinElmer, Santa Clara, CA, USA).
row,DC50 [nM],SMILES
1,100 to 500,"CC(C)Oc1cc2nn(C3CCN(C(=O)CN4CCC(c5ccc(NC6CCC(=O)NC6=O)cc5F)CC4)CC3)cc2cc1C(=O)Nc1cccc(C(F)(F)F)n1 (stereo not drawn) [Example 61, 2-[1-[2-[4-[4-[(2,6-dioxo-3-piperidyl)amino]-2-fluoro-phenyl]-1-piperidyl]acetyl]-4-piperidyl]-6-isopropoxy-N-[6-(trifluoromethyl)-2-pyridyl]indazole-5-carboxamide]"
2,10 to 100,"CC(C)Oc1cc2nc([C@H]3CC[C@H](CN4CCC(c5ccc(CN6CCC(=O)NC6=O)cc5)CC4)CC3)cn2cc1C(=O)Nc1cccc(C(F)F)n1 [Example 37, N-[6-(difluoromethyl)-2-pyridyl]-2-[4-[[4-[4-[(2,4-dioxohexahydropyrimidin-1-yl)methyl]phenyl]-1-piperidyl]methyl]cyclohexyl]-7-isopropoxy-imidazo[1,2-a]pyridine-6-carboxamide]"
3,< 10,"CC(C)Oc1nc2nc(C3CCC(CN4CCC(c5cc6c(cc5F)c(N5CCC(=O)NC5=O)nn6C)CC4)CC3)cn2cc1C(=O)Nc1cccn([C@H]2C[C@H]2F)c1=O (stereo partly drawn) [Example 197, 2-[4-[[4-[3-(2,4-dioxohexahydropyrimidin-1-yl)-5-fluoro-1-methyl-indazol-6-yl]-1-piperidyl]methyl]cyclohexyl]-N-[1-[(1S,2R)-2-fluorocyclopropyl]-2-oxo-3-pyridyl]-7-isopropoxy-imidazo[1,2-a]pyrimidine-6-carboxamide]"
4,< 10,"CC(C)Oc1cc2nc([C@H]3CC[C@H](C(=O)NC4CCN(c5ccc(C6CCC(=O)NC6=O)cn5)CC4)CC3)cn2cc1C(=O)Nc1cnn2cccnc12 (stereo partly drawn) [Example 182, 2-((1r,4r)-4-((1-(5-(2,6-dioxopiperidin-3-yl)pyridin-2-yl)piperidin-4-yl)carbamoyl)cyclohexyl)-7-isopropoxy-N-(pyrazolo[1,5-a]pyrimidin-3-yl)imidazo[,2-a]pyridine-6-carboxamide]"
5,100 to 500,"CC(C)Oc1cc2nc(C3CCN(CC(=O)N4CCC(c5ccc(NC6CCC(=O)NC6=O)cc5)CC4)CC3)cn2cc1C(=O)Nc1ccc(F)cc1F (stereo not drawn) [Example 94, N-(2,4-difluorophenyl)-2-[1-[2-[4-[4-[(2,6-dioxo-3-piperidyl)amino]phenyl]-1-piperidyl]-2-oxo-ethyl]-4-piperidyl]-7-isopropoxy-imidazo[1,2-a]pyridine-6-carboxamide]"
6,10 to 100,"CC(C)Oc1cc2nn([C@H]3CC[C@H](CN4CCOC[C@@H]4Cc4ccc(OC5CCC(=O)NC5=O)cc4)CC3)cc2cc1C(=O)Nc1cnn2cccnc12 (stereo partly drawn) [Example 131, 2-((1R,4r)-4-(((3R)-3-(4-((2,6-dioxopiperidin-3-yl)oxy)benzyl)morpholino)methyl)cyclohexyl)-6-isopropoxy-N-(pyrazolo[1,5-a]pyrimidin-3-yl)-2H-indazole-5-carboxamide]"
7,500 to 1000,"CC(C)Oc1cc2nc([C@H]3CC[C@H](CN4CCC(c5ccc6c(c5)n(C)c(=O)n6C5CCC(=O)NC5=O)CC4)CC3)cn2cc1C(=O)Nc1cccc(C(F)(F)F)n1 (stereo partly drawn) [Example 5, 2-[4-[[4-[1-(2,6-dioxo-3-piperidyl)-3-methyl-2-oxo-benzimidazol-5-yl]-1-piperidyl]methyl]cyclohexyl]-7-isopropoxy-N-[6-(trifluoromethyl)-2-pyridyl]imidazo[1,2-a]pyridine-6-carboxamide]"
8,10 to 100,"CC(C)Oc1cc2nc(C3CCN(C(=O)CN4CCC(c5ccc(NC6CCC(=O)NC6=O)cn5)CC4)CC3)cn2cc1C(=O)Nc1cccc(C(F)F)n1 (stereo not drawn) [Example 84, N-[6-(difluoromethyl)-2-pyridyl]-2-[1-[2-[4-[5-[(2,6-dioxo-3-piperidyl)amino]-2-pyridyl]-1-piperidyl]acetyl]-4-piperidyl]-7-isopropoxy-imidazo[1,2-a]pyridine-6-carboxamide]"
9,< 10,"Cc1cnc2c(NC(=O)c3cn4cc([C@H]5CC[C@H](CN6CCC(c7ccc8c(c7)n(C)c(=O)n8C7CCC(=O)NC7=O)CC6)CC5)nc4cc3OC(C)C)cnn2c1 (stereo partly drawn) [Example 51, 2-[4-[[4-[1-(2,6-dioxo-3-piperidyl)-3-methyl-2-oxo-benzimidazol-5-yl]-1-piperidyl]methyl]cyclohexyl]-7-isopropoxy-N-(6-methylpyrazolo[1,5-a]pyrimidin-3-yl)imidazo[1,2-a]pyridine-6-carboxamide]"
10,10 to 100,"CC(C)Oc1cc2nc([C@H]3CC[C@H](CN4CCC(c5ccc(N6CCC(=O)NC6=O)cc5)CC4)CC3)cn2cc1C(=O)Nc1cccc(C(F)F)n1 [Example 39, N-[6-(difluoromethyl)-2-pyridyl]-2-[4-[[4-[4-(2,4-dioxohexahydropyrimidin-1-yl)phenyl]-1-piperidyl]methyl]cyclohexyl]-7-isopropoxy-imidazo[1,2-a]pyridine-6-carboxamide]"
11,10 to 100,"CC(C)Oc1cc2nc([C@H]3CC[C@H](CN(C)C4CCN(c5ccc(C6CCC(=O)NC6=O)cc5)CC4)CC3)cn2cc1C(=O)Nc1cccc(C(F)(F)F)n1 (stereo partly drawn) [Example 13, 2-[4-[[[1-[4-(2,6-dioxo-3-piperidyl)phenyl]-4-piperidyl]-methyl-amino]methyl]cyclohexyl]-7-isopropoxy-N-[6-(trifluoromethyl)-2-pyridyl]imidazo[1,2-a]pyridine-6-carboxamide]"
12,10 to 100,"CC(C)Oc1cc2nc(C3CCN(CC(=O)N4CCC(c5cc(F)c(C6CCC(=O)NC6=O)cc5F)CC4)CC3)cn2cc1C(=O)Nc1cnn2cccnc12 (stereo not drawn) [Example 100, 2-[1-[2-[4-[4-(2,6-dioxo-3-piperidyl)-2,5-difluoro-phenyl]-1-piperidyl]-2-oxo-ethyl]-4-piperidyl]-7-isopropoxy-N-pyrazolo[1,5-a]pyrimidin-3-yl-imidazo[1,2-a]pyridine-6-carboxamide]"
13,< 10,"CC(C)Oc1cc2nn(C3CCN(C(=O)CC4CCN(c5ncc6c(n5)n(C)c(=O)n6C5CCC(=O)NC5=O)CC4)CC3)cc2cc1C(=O)Nc1cccn([C@H]2C[C@H]2F)c1=O (stereo partly drawn) [Example 150, 2-(1-(2-(1-(7-(2,6-dioxopiperidin-3-yl)-9-methyl-8-oxo-8,9-dihydro-7H-purin-2-yl)piperidin-4-yl)acetyl)piperidin-4-yl)-N-(1-((1S,2R)-2-fluorocyclopropyl)-2-oxo-1,2-dihydropyridin-3-yl)-6-isopropoxy-2H-indazole-5-carboxamide]"
14,10 to 100,"CC(C)Oc1cc2nc([C@H]3CC[C@H](CN(C)C4CCN(c5cccc(C6CCC(=O)NC6=O)c5)CC4)CC3)cn2cc1C(=O)Nc1cccc(C(F)F)n1 (stereo partly drawn) [Example 28, N-[6-(difluoromethyl)-2-pyridyl]-2-[4-[[[1-[3-(2,6-dioxo-3-piperidyl)phenyl]-4-piperidyl]-methyl-amino]methyl]cyclohexyl]-7-isopropoxy-imidazo[1,2-a]pyridine-6-carboxamide]"
15,< 10,"CC(C)Oc1cc2nc(C3CCN(C(=O)CN4CCC(c5ccc(C6(F)CCC(=O)NC6=O)cc5)CC4)CC3)cn2cc1C(=O)Nc1cnn2cccnc12 (stereo not drawn) [Example 89, 2-[1-[2-[4-[4-(3-fluoro-2,6-dioxo-3-piperidyl)phenyl]-1-piperidyl]acetyl]-4-piperidyl]-7-isopropoxy-N-pyrazolo[1,5-a]pyrimidin-3-yl-imidazo[1,2-a]pyridine-6-carboxamide]"
16,10 to 100,"CC(C)Oc1cc2nc([C@H]3CC[C@H](CN(C)C4CCN(c5cccc(C6CCC(=O)NC6=O)c5)CC4)CC3)cn2cc1C(=O)Nc1cccc(C(F)(F)F)n1 (stereo partly drawn) [Example 11, 2-[4-[[[1-[3-(2,6-dioxo-3-piperidyl)phenyl]-4-piperidyl]-methyl-amino]methyl]cyclohexyl]-7-isopropoxy-N-[6-(trifluoromethyl)-2-pyridyl]imidazo[1,2-a]pyridine-6-carboxamide]"
17,< 10,"CC(C)Oc1cc2nc([C@H]3CC[C@H](CN4CC5(CCN(c6ncc(N7CCC(=O)NC7=O)cc6F)CC5)C4)CC3)cn2cc1C(=O)Nc1cccn([C@H]2C[C@H]2F)c1=O [Example 179, 2-((1r,4S)-4-((7-(5-(2,4-dioxotetrahydropyrimidin-1(2H)-yl)-3-fluoropyridin-2-yl)-2,7-diazaspiro[3.5]nonan-2-yl)methyl)cyclohexyl)-N-(1-((1S,2R)-2-fluorocyclopropyl)-2-oxo-1,2-dihydropyridin-3-yl)-7-isopropoxyimidazo[1,2-a]pyridine-6-carboxamide]"
18,10 to 100,"CC(C)Oc1cc2nc(C3CCN(C(=O)CN4CCC(c5ccc(C6CCC(=O)NC6=O)cc5F)CC4)CC3)cn2cc1C(=O)Nc1cccc(C(F)F)n1 (stereo not drawn) [Example 80, N-[6-(difluoromethyl)-2-pyridyl]-2-[1-[2-[4-[4-(2,6-dioxo-3-piperidyl)-2-fluoro-phenyl]-1-piperidyl]acetyl]-4-piperidyl]-7-isopropoxy-imidazo[1,2-a]pyridine-6-carboxamide]"
